Test results: PubChem BioAssay AID248 (DTP/NCI, 2004)
Values joined by “and” are separate entries in the source; they are usually repeats but may differ in a detail not shown here. Equal entries are not always repeated. Toxic doses and inconclusive results are not listed. Cut-off read from the data, not from the text of the source: active = T/C of 150% or more; inactive = T/C below 125%.

Test system: L1210 leukemia ip in BDF1 mice, survival T/C
Test: NCI In Vivo Anticancer Drug Screen. Data for tumor model L1210 Leukemia (intraperitoneal) in B6D2F1 (BDF1) mice
Details: endpoint: mean survival time, higher = longer survival
Outline: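 Tumor was transplanted into mice, which were then dosed with test compound or vehicle alone. Survival was recorded for each group, and the treated figure was expressed relative to the control figure.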

[1] = dose: 100.0 mg/kg/injection, schedule: Q01DX001 (ip), vehicle: Klucel (hydroxypropylcellulose) (HPC)
[2] = dose: 100.0 mg/kg/injection, schedule: Q01DX009 (ip), vehicle: saline with Tween-80
[3] = dose: 100.0 mg/kg/injection, schedule: Q04DX003 (ip), vehicle: Klucel (hydroxypropylcellulose) (HPC)
[4] = dose: 100.0 mg/kg/injection, schedule: Q04DX003 (ip), vehicle: saline with Tween-80
[5] = dose: 200.0 mg/kg/injection, schedule: Q01DX001 (ip), vehicle: Klucel (hydroxypropylcellulose) (HPC)
[6] = dose: 200.0 mg/kg/injection, schedule: Q04DX003 (ip), vehicle: Klucel (hydroxypropylcellulose) (HPC)
[7] = dose: 400.0 mg/kg/injection, schedule: Q01DX001 (ip), vehicle: Klucel (hydroxypropylcellulose) (HPC)
[8] = dose: 400.0 mg/kg/injection, schedule: Q04DX003 (ip), vehicle: Klucel (hydroxypropylcellulose) (HPC)
[9] = dose: 100.0 mg/kg/injection, schedule: Q04DX003 (ip), vehicle: saline
[10] = dose: 200.0 mg/kg/injection, schedule: Q04DX003 (ip), vehicle: saline
[11] = dose: 400.0 mg/kg/injection, schedule: Q04DX003 (ip), vehicle: saline
[12] = dose: 100.0 mg/kg/injection, schedule: Q01DX009 (ip), vehicle: Klucel (hydroxypropylcellulose) (HPC)
[13] = dose: 200.0 mg/kg/injection, schedule: Q01DX009 (ip), vehicle: Klucel (hydroxypropylcellulose) (HPC)
[14] = dose: 200.0 mg/kg/injection, schedule: Q04DX003 (ip), vehicle: saline with Tween-80
[15] = dose: 400.0 mg/kg/injection, schedule: Q04DX003 (ip), vehicle: saline with Tween-80
[16] = dose: 100.0 mg/kg/injection, schedule: Q01DX001 (ip), vehicle: saline
[17] = dose: 100.0 mg/kg/injection, schedule: Q01DX009 (ip), vehicle: saline
[18] = dose: 200.0 mg/kg/injection, schedule: Q01DX009 (ip), vehicle: saline
[19] = dose: 400.0 mg/kg/injection, schedule: Q01DX009 (ip), vehicle: saline

Measured: T/C

CC(C)C1CCC(NC(=O)Nc2ccccc2)CC1 (centres undefined)
inactive: dose: 25.0 mg/kg/injection, schedule: Q01DX009 (ip), vehicle: saline with Tween-80 93 % of control | dose: 25.0 mg/kg/injection, schedule: Q04DX003 (ip), vehicle: saline with Tween-80 97 % of control | dose: 50.0 mg/kg/injection, schedule: Q01DX009 (ip), vehicle: saline with Tween-80 95 % of control | dose: 50.0 mg/kg/injection, schedule: Q04DX003 (ip), vehicle: saline with Tween-80 101 % of control | [1] 111 % of control | [2] 88 % of control | [3] 94 % of control | [4] 100 % of control and 106 % of control | [5] 101 % of control | [6] 101 % of control | [7] 103 % of control | [8] 94 % of control

CCOC(=O)CCOCOCCC(=O)OCC
inactive: [9] 106 % of control | [10] 110 % of control | [11] 95 % of control

Cc1ccc(NC(=O)OCCOc2ccc(Cl)cc2)c([N+](=O)[O-])c1
inactive: dose: 50.0 mg/kg/injection, schedule: Q01DX009 (ip), vehicle: Klucel (hydroxypropylcellulose) (HPC) 97 % of control | [12] 87 % of control | [3] 99 % of control | [13] 90 % of control | [6] 104 % of control | [8] 90 % of control

OCC1OC(OCC2OC(OC3(CO)OC(CO)C(O)C3O)C(O)C(O)C2O)C(O)C(O)C1O (centres undefined)
inactive: [9] 101 % of control | [10] 106 % of control | [11] 104 % of control

Cc1cc(C(=O)NN)c(C#N)c(=O)[nH]1
inactive: dose: 100.0 mg/kg/injection, schedule: Q01DX001 (ip), vehicle: other 93 % of control | dose: 200.0 mg/kg/injection, schedule: Q01DX001 (ip), vehicle: other 95 % of control | dose: 400.0 mg/kg/injection, schedule: Q01DX001 (ip), vehicle: other 97 % of control

CC(C)c1ccc(/C=N/NC(=O)c2ccc[n+](C)c2)cc1
inactive: dose: 12.5 mg/kg/injection, schedule: Q01DX009 (ip), vehicle: saline 94 % of control | dose: 25.0 mg/kg/injection, schedule: Q01DX009 (ip), vehicle: saline 98 % of control | dose: 50.0 mg/kg/injection, schedule: Q01DX009 (ip), vehicle: saline 112 % of control and 91 % of control

S=C(S)NCCc1ccccn1
inactive: [4] 95 % of control | [14] 87 % of control | [15] 98 % of control

O=C(COc1ccc(Cl)cc1C(=O)O)Nc1cccc(NC(=O)Nc2ccc(S(=O)(=O)F)cc2)c1
inactive: [1] 91 % of control | [5] 101 % of control | [7] 93 % of control

CCCCSc1nc2ccc([N+](=O)[O-])cc2s1
inactive: dose: 100.0 mg/kg/injection, schedule: Q04DX002 (ip), vehicle: gum acacia 95 % of control | dose: 200.0 mg/kg/injection, schedule: Q04DX002 (ip), vehicle: gum acacia 95 % of control | dose: 400.0 mg/kg/injection, schedule: Q04DX002 (ip), vehicle: gum acacia 95 % of control

CC1(C)Oc2c(ccc(O)c2CN2CCCCC2)C2=C1CCCC2
inactive: [16] 89 % of control

CCCCCCC(O)C/C=C\CCCCCCCCO (centres undefined)
inactive: [17] 121 % of control | [9] 101 % of control | [18] 115 % of control | [10] 99 % of control | [19] 103 % of control | [11] 104 % of control

O=[N+]([O-])c1ccc(N/N=C\c2ccc3ccccc3n2)cc1
inactive: [17] 97 % of control | [18] 104 % of control | [19] 91 % of control

COc1cccc(NC(=O)Nc2ccccc2OC)c1
inactive: [12] 106 % of control | [3] 100 % of control | [13] 108 % of control | [6] 97 % of control | dose: 400.0 mg/kg/injection, schedule: Q01DX009 (ip), vehicle: Klucel (hydroxypropylcellulose) (HPC) 103 % of control | [8] 100 % of control

CC(C)(O)C/C=C/c1ccccc1
inactive: [4] 103 % of control | [14] 103 % of control | [15] 106 % of control

CC(=O)N[C@H]1CC[C@H]2[C@@H]3CCC4=CC(=O)CC[C@]4(C)[C@H]3CC[C@]12C
inactive: [4] 86 % of control | [14] 92 % of control | [15] 86 % of control

COC1C(O)C(C)OC(OC2CCC3(C)C(CCC4C3C(O)CC3(C)C(C5=CC(=O)OC5)CCC43O)C2)C1O (centres undefined)
inactive: dose: 5.0 mg/kg/injection, schedule: Q01DX001 (ip), vehicle: saline 103 % of control | dose: 10.0 mg/kg/injection, schedule: Q01DX001 (ip), vehicle: saline 103 % of control | dose: 20.0 mg/kg/injection, schedule: Q01DX001 (ip), vehicle: saline 101 % of control

COc1cc(C=O)cc(O)c1O
inactive: dose: 62.5 mg/kg/injection, schedule: Q01DX Z (ip), vehicle: saline 96 % of control | dose: 500.0 mg/kg/injection, schedule: Q01DX Z (ip), vehicle: saline 124 % of control

CCOC(=O)C(CC(OCC)OCC)C(=O)OCC
inactive: [2] 95 % of control | [4] 101 % of control | dose: 200.0 mg/kg/injection, schedule: Q01DX009 (ip), vehicle: saline with Tween-80 96 % of control | [14] 108 % of control | dose: 400.0 mg/kg/injection, schedule: Q01DX009 (ip), vehicle: saline with Tween-80 96 % of control | [15] 100 % of control

OC(c1ccccc1)(c1ccccc1)C(c1ccccc1)c1ccccc1
inactive: dose: 100.0 mg/kg/injection, schedule: Q04DX003 (ip), vehicle: acetone 93 % of control | dose: 200.0 mg/kg/injection, schedule: Q04DX003 (ip), vehicle: acetone 97 % of control | dose: 400.0 mg/kg/injection, schedule: Q04DX003 (ip), vehicle: acetone 87 % of control

C1CCNNC1
inactive: [16] 104 % of control | [9] 114 % of control | dose: 200.0 mg/kg/injection, schedule: Q01DX001 (ip), vehicle: saline 98 % of control | [10] 94 % of control | dose: 400.0 mg/kg/injection, schedule: Q01DX001 (ip), vehicle: saline 95 % of control | [11] 89 % of control

O=C(N/N=C/c1ccc(O)cc1O)c1ccc(O)cc1
inactive: dose: 100.0 mg/kg/injection, schedule: Q04DX002 (ip), vehicle: Klucel (hydroxypropylcellulose) (HPC) 92 % of control | dose: 200.0 mg/kg/injection, schedule: Q04DX002 (ip), vehicle: Klucel (hydroxypropylcellulose) (HPC) 103 % of control | dose: 400.0 mg/kg/injection, schedule: Q04DX002 (ip), vehicle: Klucel (hydroxypropylcellulose) (HPC) 103 % of control
